From patent US9476099B2 (TRUSTEES OF DARTMOUTH COLLEGE, priority 2012, dated 2016)

Key:
833K-CP cells = experiment: Cisplatin sensitivity (cell viability) after low dose decitabine pretreatment; format: cell-based; conditions: 2.5 nM 3 days, 24 hour recovery, cisplatin 6 hours, viability 3 days later
Procedure: (§1) Cell viability was assayed 3 days later. For NT2D1-R1 cells, 10 nM decitabineR was employed. […] Data are the average of biological triplicates and representative of at least two experiments. Error bars are standard error of the mean (SEM).
(§2) Cell viability was assayed 3 days later. For NT2D1-R1 cells, 10 nM decitabineR was employed. […] Data are the average of biological triplicates and representative of at least two experiments. Error bars are SEM.
(§3) Five distinct lentiviral shRNAs for DNMT3B (sh84, sh85, sh86, sh87, and sh88) were used to knock down DNMT3B expression. Six potential alternatively spliced isoforms of DNMT3B exist; the most biologically relevant isoforms are variants 1, 2, 3 and 6 (Jones, P. A. and S. B. Baylin. 2007. Cell 128:683-692). […] Western blot analysis of NT2/D1 and NT2/D1-R1 cells was also performed with cells treated with DNMT3B shRNA ([…]) and employing DNMT3B antibody, H-230. The results confirmed the reduced expression of DNMT3B when the shRNA were employed. None of the DNMT3B-specific shRNAs affected levels of DNMT1 or DNMT3A (FIG. 2). […] However, knockdown of DNMT3B by itself had no apparent effect on the growth of NT2/D1 or NT2/D1-R1 cells. […] It had been previously reported that cisplatin causes a global p53-dominant transcriptional response in EC cells (Kerley-Hamilton et al. 2005. Oncogene 24:6090-6100). […]

NT2/D1-R1 cells = experiment: as above; format: cell-based; conditions: 10 nM 3 days, 24 hour recovery, cisplatin 6 hours, viability 3 days later
Procedure: as §1, §2, §3

[1] = tested on: EC cell lines (NT2/D1, NT2D1/R1, 833K, 833KCP, and Tera-1); experiment: Cell-Titre Glo viable cell growth and survival, all EC cell lines; format: cell-based; conditions: 10 to 5000 nM added fresh each day for three days; FIG. 1
Procedure: Indicated doses of decitabine were added fresh each day for three days to exponentially growing cultures. Viable cell growth and survival were measured. Data are normalized to no drug treatment. EC cells are NT2/D1, NT2D1/R1, 833K, 833KCP, and Tera-1. Data are the average of 3 experiments in biological duplicate except for MCF-7 cells, which were assayed twice. Error bars are standard deviation (S.D.).
Cell growth and viability of five EC cell lines (NT2/D1, NT2D1/R1, 833K, 833KCP, and Tera-1) were determined, including two cell lines that are cisplatin-resistant (NT2/D1-R1 and 833KCP). Three control somatic tumor cell lines were also tested (HCT116, MCF7 and U2OS). […] Viable cell growth and survival were measured using Cell-Titre Glo (Promega) assays. […] These higher values are similar to the values shown in FIG. 1 for somatic tumor cell lines (MCF7, U2OS and HCT116).
NT2/D1, NT2D1-R1, 833K, 833K-CP, Tera-1, U20S, and HCT116 cells were cultured in DMEM with 10% FBS supplemented with glutamine and antibiotics except for MCF7 cells that were cultured in F12-DMEM. The derivation of the NT2/D1-resistant NT2/D1-R1 cell line has been previously described (Curtin et al. 2001. Oncogene 20:2559-2569; Kerley-Hamilton et al. 2007. Biochim. Biophys. Acta 1769:209-219). Cells were treated with the indicated dosages of 5-azadeoxycytidine (5-aza-CdR) for 3 days. This drug was replenished each day. […]

[2] = tested on: NT2/D1 and NT2/D1-R1 cells expressing DNMT3B-targeting shRNAs; experiment: Decitabine dose-response in DNMT3B shRNA knockdown EC cells; format: cell-based, human
Procedure: Data are the average of biological triplicates and are representative of at least two experiments. Error bars are S.D.
Viable cell growth and survival were measured. Data was normalized to no drug treatment. Error bars (within symbols) are standard deviation. * p=<0.05 compared to untreated controls.
as §3
Cells were cultured in DMEM media (Gibco) with 10% FBS. […] Cell proliferation and survival were assessed with the CELL-TITRE GLO assay (Promega). […]

[3] = tested on: LINE-1 elements in NT2/D1 cells; experiment: LINE-1 element bisulfite pyrosequencing (global DNA methylation); format: cell-based; conditions: low dose decitabine
Description: Genomic DNA was isolated with the QIAMP DNA mini kit (Qiagen) and bisulfite converted with the EZ DNA methylation kit (Zymo Research). DNA was amplified with HOTSTARTAQ plus DNA polymerase (Qiagen). The LINE-1 pyrosequencing assay averages across four CpG sites and has been described previously (Kashiwagi et al. 2011. Nucleic Acids Res. 39:874-888). Pyrosequencing assays for RIN1, SOX15, and TLR4 were designed with PyroMark assay design software (Qiagen) to sequence across corresponding probes cg0599842, cg02515422 and cg13098960 on the HumanMethylation27 BeadChip.

[4] = tested on: gene promoters in NT2/D1 cells; experiment: Global DNA promoter methylation analysis, HumanMethylation27 BeadChip; format: cell-based, human; conditions: 3 day low dose decitabine
Procedure: However, methylation changes were less robust in the experiments in NT2/D1 cells. Only 12 genes were identified as having significant decreases in promoter methylation. […] These six genes included RIN1, SOX15, TLR4, GPER, TRIM54, and CD164L2.
DNA methylation analysis was performed in samples in triplicate using the […] […] assay with the HumanMethylation27 BeadChip ([…]) and the BeadChip was scanned on the BeadArray Reader ([…]), according to the manufacturer's instructions. Raw data was normalized and analyzed with Genome Studio software ([…]). The HumanMethylation27 BeadChip assays 27,578 CpGs covering more than 14,000 genes, mostly from promoter regions. […] Hierarchical clustering was performed as stated above. HumanMethylation27 BeadChip data and gene expression microarray data were submitted to NCBI GEO.

Nc1ncn([C@H]2C[C@H](O)[C@@H](CO)O2)c(=O)n1 [decitabine, 5-aza-deoxycytidine]
effect of low dose decitabine pretreatment on cisplatin-induced growth suppression and toxicity (833K-CP cells): restored cisplatin-induced growth suppression and toxicity
effect of low dose decitabine pretreatment on cisplatin-induced growth suppression and toxicity (NT2/D1-R1 cells): restored cisplatin-induced growth suppression and toxicity
growth of all EC cell lines [1]: inhibited
effect of DNMT3B knockdown on response to low-dose 3 day decitabine treatment compared to sh-control cells ([2]; NT2/D1-R1 shDNMT3B, FIG. 11): extensive resistance
decitabine sensitivity of cells expressing DNMT3B-targeting shRNAs compared to control cells ([2]; NT2/D1 sh84, NT2/D1-R1 sh84, sh85, sh86, 3 day treatment, FIG. 3): dramatic reduction of decitabine sensitivity
global DNA methylation (LINE-1 bisulfite pyrosequencing) [3]: significant reduction in global DNA methylation
genes with significant decreases in promoter methylation [4]: 12 genes
